Reference: patent US20040191913A1, “Method of evaluation of antioxidation ability by measuring redox balance in vivo” (priority 2002, published 2004)

How the values were obtained:
[1] = Radical removability by magnetic spin resonator (attenuation of the DMPO-OOL signal); type: biochemical; conditions: 10 mM DMPO; for IC50 / 50% Inhibition Concentration: DMPO-OOL signal intensity, 1 minute after start of reaction; for IC50: read-out: 50% Inhibition Concentration
Procedure: The antioxidation index is obtained by indexing the radical removability, R that is determined by the use of a magnetic spin resonator in the manner mentioned below, within a range of from 1 to 10points. The determination with a magnetic spin resonator is effected as follows: The DMPO-OOL radical resulting from trapping of a butylhydroperoxide radical by a spin trapping agent, 5,5-dimethyl-1-pyrroline-N-oxide (DMPO) is quantitatively determined by the use of a magnetic spin resonator, and a serum sample is added to the system to determine the degree of signal intensity attenuation in the system. […] Radical Removability R=[DMPO]/50% Inhibition Concentration.
Preferably, the determination with a magnetic spin resonator is effected as follows: 100 mM butylhydroperoxide, 50 μg/ml methemoglobin, 10 mM DMPO and 0.1 mM diethylenetriamine-pentaacetic acid are reacted in 10 mM phosphate buffer. One minute after the start of the reaction, the DMPO-OOL signal intensity is measured by the use of a magnetic spin resonator.

[2] = tested on: Leptin receptor-defective, natural diabetic db/db mice; assay: Animal test: 0.02% astaxanthin feed in diabetic db/db mice; type: in vivo
Description: The quantitative determination of 8-OHdG is effected through enzyme immunoassay using a monoclonal antibody.
Leptin receptor-defective, natural diabetic db/db mice (animal model similar to human type-II diabetes) were used in the test. […] A control group of leptin receptor-defective, natural diabetic db/db mice was not given astaxanthin.

IC50 [1] [µM] | Compound | R (Radical Removability = [DMPO]/50% Inhibition Concentration) [1] | further results
44 | O=C1O[C@H]([C@@H](O)CO)C(O)=C1O [Ascorbic acid] | 227 | 
410 | N[C@@H](CCC(=O)N[C@@H](CS)C(=O)NCC(=O)O)C(=O)O [Glutathione] | 24 | 
360 | O=c1[nH]c(=O)c2[nH]c(=O)[nH]c2[nH]1 [Uric acid] | 28 | 
700 | Cc1c(C)c2c(c(C)c1O)CC[C@@](C)(CCC[C@H](C)CCC[C@H](C)CCCC(C)C)O2 [α-Tocopherol] | 14 | 

Second part, the compound before the results:

Compound | IC50 [1] [µM] | R (Radical Removability = [DMPO]/50% Inhibition Concentration) [1] | further results
CC1=C(/C=C/C(C)=C/C=C/C(C)=C/C=C/C=C(C)/C=C/C=C(C)/C=C/C2=C(C)C(=O)[C@@H](O)CC2(C)C)C(C)(C)C[C@H](O)C1=O [Astaxanthin, astaxanthin] |  |  | 8-OHdG discharge in urine (in words) ([2]; 3 months): significantly inhibits; development of diabetic nephropathy (in words) ([2]; 3 months): significantly retards; 8-OHdG in Urine ([2]; fed for 3 months, enzyme immunoassay, p < 0.05 vs control group): 135.6 ± 41.1 ng/day; Albumin in Urine ([2]; fed for 3 months, p < 0.05 vs control group): 68.6 ± 13.4 µg/day
CC1=C(/C=C/C(C)=C/C=C/C(C)=C/C=C/C=C(C)/C=C/C=C(C)/C=C/C2=C(C)CCCC2(C)C)C(C)(C)CCC1 [β-Carotene] |  |  | 50% Inhibition Concentration [1]: >0.2 mg/mL
Catalase |  |  | 50% Inhibition Concentration [1]: >4,000 U/ml
